# Experimental data taken from US20130210786A1, “TREATMENT OF L-DOPA, DOPAMINE AGONIST AND/OR DOPAMINE ENHANCER INDUCED DISORDERS” (priority 2010, published 2013).
# Assays:
# MPTP-lesioned macaques [1] = assay: L-DOPA induced dyskinesia (LID) in MPTP-lesioned macaques, monkey dyskinesia rating scale; type: in vivo, Macaca fascicularis; settings: for % reduction in LID compared to corresponding vehicle group / Number of LID events in each stated time period (hours) post challenge 0-1 / Number of LID events in each stated time period (hours) post challenge 1-2 / Number of LID events in each stated time period (hours) post challenge 2-3 / Number of LID events in each stated time period (hours) post challenge 3-4 / Number of LID events in each stated time period (hours) post challenge 4-5 / Number of LID events in each stated time period (hours) post challenge 5-6 / Number of LID events post challenge Total: smilagenin 20 mg/kg/day p.o. 18 weeks, then 10 week washout; for Number of LID events in each stated time period (hours) post challenge 0-1: 0-1 h; for Number of LID events in each stated time period (hours) post challenge 1-2: 1-2 h; for Number of LID events in each stated time period (hours) post challenge 2-3: 2-3 h; for Number of LID events in each stated time period (hours) post challenge 3-4: 3-4 h; for Number of LID events in each stated time period (hours) post challenge 4-5: 4-5 h; for Number of LID events in each stated time period (hours) post challenge 5-6: 5-6 h; for Number of LID events post challenge Total: total 0-6 h
# Procedure: Ten female cynomolgus monkeys (macaques) (Macaca fascicularis, 3.0-4.5 kg, 4-6 years old) were acclimatised to the experimental setting and procedures for 3 months and baseline behaviour was assessed in all animals. The macaques received MPTP (0.2 mg/kg/day, s.c.) until moderate-marked, stable, parkinsonian symptoms developed.
# Following stabilisation of parkinsonian disability, the macaques were administered L-DOPA (Madopar, 20 mg/kg b.i.d., p.o.) for 19 weeks before being administered L-DOPA+vehicle (hydroxypropylmethylcellulose, HPMC, 0.5% w/v containing Tween 80, 0.2% v/v, group 1, n=5) or L-DOPA+smilagenin (20 mg/kg/day, p.o., group 2, n=5) for a further 18 weeks. Smilagenin was then washed out for 10 weeks and all the macaques received only L-DOPA twice daily over this 10 week period.
# Following the 10 week washout, the macaques were challenged with L-DOPA (6, 12, 20, 30 or 40 mg/kg, p.o.) or vehicle and the level of dyskinesia over the subsequent 6 h period was assessed by a neurologist blinded to treatment using a monkey dyskinesia rating scale. […] Each macaque received a challenge once every 3 days and received every challenge (vehicle and L-DOPA, 6, 12, 20, 30 or 40 mg/kg) in a randomised order over the course of the experiment. On the days between challenges, the macaques received L-DOPA (20 mg/kg, b.i.d., p.o.) as normal.
# The MPTP-lesioned and L-DOPA treated macaques used in this experiment provide an accepted model for L-DOPA-induced dyskinesia.
# MPTP-lesioned macaques [2] = assay: On-time (time without bradykinesia) in MPTP-lesioned macaques after L-DOPA challenge; type: in vivo, Macaca fascicularis; settings: for Minutes spent in on time (mean ± s.e. mean): 6 h observation; for Minutes spent in on time (mean ± s.e. mean) / Percent on-time normalised to 0 mg/kg L-DOPA (mean ± s.e. mean): smilagenin 20 mg/kg/day p.o. 18 weeks, then 10 week washout
# Procedure: Analysis was performed using a two-way ANOVA with group and L-DOPA dose as factors.
# [3] = Total across all L-DOPA challenge doses (0-40 mg/kg)
compound,measurement,setting,value
"C[C@@H]1CC[C@@]2(OC1)O[C@H]1C[C@H]3[C@@H]4CC[C@@H]5C[C@@H](O)CC[C@]5(C)[C@H]4CC[C@]3(C)[C@H]1[C@@H]2C [Smilagenin, smilagenin]",% reduction in LID compared to corresponding vehicle group,MPTP-lesioned macaques [1]; Across all doses of L-DOPA,53%
same,Number of LID events in each stated time period (hours) post challenge 0-1,MPTP-lesioned macaques [1]; L-DOPA challenge 0 mg/kg,0
same,Number of LID events in each stated time period (hours) post challenge 1-2,MPTP-lesioned macaques [1]; L-DOPA challenge 0 mg/kg,0
same,Number of LID events in each stated time period (hours) post challenge 2-3,MPTP-lesioned macaques [1]; L-DOPA challenge 0 mg/kg,0
same,Number of LID events in each stated time period (hours) post challenge 3-4,MPTP-lesioned macaques [1]; L-DOPA challenge 0 mg/kg,0
same,Number of LID events in each stated time period (hours) post challenge 4-5,MPTP-lesioned macaques [1]; L-DOPA challenge 0 mg/kg,0
same,Number of LID events in each stated time period (hours) post challenge 5-6,MPTP-lesioned macaques [1]; L-DOPA challenge 0 mg/kg,0
same,% reduction in LID compared to corresponding vehicle group,MPTP-lesioned macaques [1]; L-DOPA challenge 0 mg/kg,0%
same,Number of LID events post challenge Total,MPTP-lesioned macaques [1]; L-DOPA challenge 0 mg/kg,0
same,Number of LID events in each stated time period (hours) post challenge 0-1,MPTP-lesioned macaques [1]; L-DOPA challenge 6 mg/kg p.o.,0
same,Number of LID events in each stated time period (hours) post challenge 1-2,MPTP-lesioned macaques [1]; L-DOPA challenge 6 mg/kg p.o.,0
same,Number of LID events in each stated time period (hours) post challenge 2-3,MPTP-lesioned macaques [1]; L-DOPA challenge 6 mg/kg p.o.,0
same,Number of LID events in each stated time period (hours) post challenge 3-4,MPTP-lesioned macaques [1]; L-DOPA challenge 6 mg/kg p.o.,0
same,Number of LID events in each stated time period (hours) post challenge 4-5,MPTP-lesioned macaques [1]; L-DOPA challenge 6 mg/kg p.o.,0
same,Number of LID events in each stated time period (hours) post challenge 5-6,MPTP-lesioned macaques [1]; L-DOPA challenge 6 mg/kg p.o.,0
same,% reduction in LID compared to corresponding vehicle group,MPTP-lesioned macaques [1]; L-DOPA challenge 6 mg/kg p.o.,0%
same,Number of LID events post challenge Total,MPTP-lesioned macaques [1]; L-DOPA challenge 6 mg/kg p.o.,0
same,Number of LID events in each stated time period (hours) post challenge 0-1,MPTP-lesioned macaques [1]; L-DOPA challenge 12 mg/kg p.o.,0
same,Number of LID events in each stated time period (hours) post challenge 1-2,MPTP-lesioned macaques [1]; L-DOPA challenge 12 mg/kg p.o.,0
same,Number of LID events in each stated time period (hours) post challenge 2-3,MPTP-lesioned macaques [1]; L-DOPA challenge 12 mg/kg p.o.,0
same,Number of LID events in each stated time period (hours) post challenge 3-4,MPTP-lesioned macaques [1]; L-DOPA challenge 12 mg/kg p.o.,0
same,Number of LID events in each stated time period (hours) post challenge 4-5,MPTP-lesioned macaques [1]; L-DOPA challenge 12 mg/kg p.o.,0
same,Number of LID events in each stated time period (hours) post challenge 5-6,MPTP-lesioned macaques [1]; L-DOPA challenge 12 mg/kg p.o.,0
same,% reduction in LID compared to corresponding vehicle group,MPTP-lesioned macaques [1]; L-DOPA challenge 12 mg/kg p.o.,100%
same,Number of LID events post challenge Total,MPTP-lesioned macaques [1]; L-DOPA challenge 12 mg/kg p.o.,0
same,Number of LID events in each stated time period (hours) post challenge 0-1,MPTP-lesioned macaques [1]; L-DOPA challenge 20 mg/kg p.o.,8
same,Number of LID events in each stated time period (hours) post challenge 1-2,MPTP-lesioned macaques [1]; L-DOPA challenge 20 mg/kg p.o.,29
same,Number of LID events in each stated time period (hours) post challenge 2-3,MPTP-lesioned macaques [1]; L-DOPA challenge 20 mg/kg p.o.,6
same,Number of LID events in each stated time period (hours) post challenge 3-4,MPTP-lesioned macaques [1]; L-DOPA challenge 20 mg/kg p.o.,0
same,Number of LID events in each stated time period (hours) post challenge 4-5,MPTP-lesioned macaques [1]; L-DOPA challenge 20 mg/kg p.o.,0
same,Number of LID events in each stated time period (hours) post challenge 5-6,MPTP-lesioned macaques [1]; L-DOPA challenge 20 mg/kg p.o.,0
same,% reduction in LID compared to corresponding vehicle group,MPTP-lesioned macaques [1]; L-DOPA challenge 20 mg/kg p.o.,52%
same,Number of LID events post challenge Total,MPTP-lesioned macaques [1]; L-DOPA challenge 20 mg/kg p.o.,43
same,Number of LID events in each stated time period (hours) post challenge 0-1,MPTP-lesioned macaques [1]; L-DOPA challenge 30 mg/kg p.o.,3
same,Number of LID events in each stated time period (hours) post challenge 1-2,MPTP-lesioned macaques [1]; L-DOPA challenge 30 mg/kg p.o.,29
same,Number of LID events in each stated time period (hours) post challenge 2-3,MPTP-lesioned macaques [1]; L-DOPA challenge 30 mg/kg p.o.,11
same,Number of LID events in each stated time period (hours) post challenge 3-4,MPTP-lesioned macaques [1]; L-DOPA challenge 30 mg/kg p.o.,0
same,Number of LID events in each stated time period (hours) post challenge 4-5,MPTP-lesioned macaques [1]; L-DOPA challenge 30 mg/kg p.o.,0
same,Number of LID events in each stated time period (hours) post challenge 5-6,MPTP-lesioned macaques [1]; L-DOPA challenge 30 mg/kg p.o.,0
same,% reduction in LID compared to corresponding vehicle group,MPTP-lesioned macaques [1]; L-DOPA challenge 30 mg/kg p.o.,76%
same,Number of LID events post challenge Total,MPTP-lesioned macaques [1]; L-DOPA challenge 30 mg/kg p.o.,43
same,Number of LID events in each stated time period (hours) post challenge 0-1,MPTP-lesioned macaques [1]; L-DOPA challenge 40 mg/kg p.o.,8
same,Number of LID events in each stated time period (hours) post challenge 1-2,MPTP-lesioned macaques [1]; L-DOPA challenge 40 mg/kg p.o.,56
same,Number of LID events in each stated time period (hours) post challenge 2-3,MPTP-lesioned macaques [1]; L-DOPA challenge 40 mg/kg p.o.,48
same,Number of LID events in each stated time period (hours) post challenge 3-4,MPTP-lesioned macaques [1]; L-DOPA challenge 40 mg/kg p.o.,14
same,Number of LID events in each stated time period (hours) post challenge 4-5,MPTP-lesioned macaques [1]; L-DOPA challenge 40 mg/kg p.o.,0
same,Number of LID events in each stated time period (hours) post challenge 5-6,MPTP-lesioned macaques [1]; L-DOPA challenge 40 mg/kg p.o.,0
same,% reduction in LID compared to corresponding vehicle group,MPTP-lesioned macaques [1]; L-DOPA challenge 40 mg/kg p.o.,27%
same,Number of LID events post challenge Total,MPTP-lesioned macaques [1]; L-DOPA challenge 40 mg/kg p.o.,126
same,Number of LID events in each stated time period (hours) post challenge 0-1,MPTP-lesioned macaques [1]; [3],19
same,Number of LID events in each stated time period (hours) post challenge 1-2,MPTP-lesioned macaques [1]; [3],114
same,Number of LID events in each stated time period (hours) post challenge 2-3,MPTP-lesioned macaques [1]; [3],65
same,Number of LID events in each stated time period (hours) post challenge 3-4,MPTP-lesioned macaques [1]; [3],14
same,Number of LID events in each stated time period (hours) post challenge 4-5,MPTP-lesioned macaques [1]; [3],0
same,Number of LID events in each stated time period (hours) post challenge 5-6,MPTP-lesioned macaques [1]; [3],0
same,Number of LID events post challenge Total,MPTP-lesioned macaques [1]; [3],212
same,Dyskinesia following challenge with L-DOPA,"MPTP-lesioned macaques [1]; group 2 (L-DOPA+smilagenin), challenge with L-DOPA 6 or 12 mg/kg, 6 h",no dyskinesia was observed
same,"Dyskinesia following challenge with L-DOPA, compared to group 1 (vehicle)","MPTP-lesioned macaques [1]; group 2 (L-DOPA+smilagenin), challenge with L-DOPA at 20, 30 or 40 mg/kg",less dyskinesia compared to group 1
same,Minutes spent in on time (mean ± s.e. mean),MPTP-lesioned macaques [2]; L-DOPA dose 0 mg/kg,114 ± 43 min
same,Percent on-time normalised to 0 mg/kg L-DOPA (mean ± s.e. mean),MPTP-lesioned macaques [2]; L-DOPA dose 0 mg/kg,100%
same,Minutes spent in on time (mean ± s.e. mean),MPTP-lesioned macaques [2]; L-DOPA dose 6 mg/kg,134 ± 43 min
same,Percent on-time normalised to 0 mg/kg L-DOPA (mean ± s.e. mean),MPTP-lesioned macaques [2]; L-DOPA dose 6 mg/kg,118 ± 32%
same,Minutes spent in on time (mean ± s.e. mean),MPTP-lesioned macaques [2]; L-DOPA dose 12 mg/kg,126 ± 35 min
same,Percent on-time normalised to 0 mg/kg L-DOPA (mean ± s.e. mean),MPTP-lesioned macaques [2]; L-DOPA dose 12 mg/kg,111 ± 28%
same,Minutes spent in on time (mean ± s.e. mean),MPTP-lesioned macaques [2]; L-DOPA dose 20 mg/kg,178 ± 29 min
same,Percent on-time normalised to 0 mg/kg L-DOPA (mean ± s.e. mean),MPTP-lesioned macaques [2]; L-DOPA dose 20 mg/kg,156 ± 16%
same,Minutes spent in on time (mean ± s.e. mean),MPTP-lesioned macaques [2]; L-DOPA dose 30 mg/kg,224 ± 13 min
same,Percent on-time normalised to 0 mg/kg L-DOPA (mean ± s.e. mean),MPTP-lesioned macaques [2]; L-DOPA dose 30 mg/kg,196 ± 6%
same,Minutes spent in on time (mean ± s.e. mean),MPTP-lesioned macaques [2]; L-DOPA dose 40 mg/kg,230 ± 24 min
same,Percent on-time normalised to 0 mg/kg L-DOPA (mean ± s.e. mean),MPTP-lesioned macaques [2]; L-DOPA dose 40 mg/kg,202 ± 10%
same,"Total on-time, smilagenin group versus vehicle group","MPTP-lesioned macaques [2]; two-way ANOVA with group and L-DOPA dose as factors, p>0.05",not significantly different
